Data published in US20120115801A1, “METHOD FOR OBTAINING A STABLE DISPERSION OF BENZOYL PEROXIDE” (Dow Pharmaceutical Sciences, Inc., priority 2008, published 2012).

Legend:
[1] = benzoyl peroxide wettability study; type: physicochemical; settings: 1.5 g powder, agitated as in Example 1
Protocol: A benzoyl peroxide wettability study was conducted as follows. 1.5 grams of a hydrous benzoyl peroxide powder was spread on the surface of each of three test fluids contained in glass beakers having about a 5 cm diameter, containing either 30 ml of purified water (Sample A), 30 ml of a fluid composed of 5% propylene glycol and 95% purified water (Sample B), or 30 ml of a fluid composed of 50% propylene glycol and 50% purified water (Sample C). At the bottom of each beaker was a 12 mm×8 mm magnetic stir bar. Each of the fluids, with the benzoyl peroxide powder on the surface, was stirred at 1200 rpm. After 5 and 10 minutes of stirring, the samples were visually inspected for the degree of wetting of the benzoyl peroxide. Good wetting was evidenced by visual determination of little or no agglomeration and/or crusting. It was determined that the wetting of the benzoyl peroxide in Sample A was poor, with little or no visual evidence of wetting. The wetting of the benzoyl peroxide in Sample B was determined to be good, with visual evidence of wetting of a significant portion of the benzoyl peroxide powder. The wetting of the benzoyl peroxide in Sample C was determined to be very good, with visual evidence of wetting of the majority of the benzoyl peroxide powder.
(§1) The wetting study of Example 1 was repeated utilizing 1.5 grams of benzoyl peroxide powder and 30 ml of a fluid composed of 7.5% ethanol and 92.5% water. The fluid with the benzoyl peroxide powder was agitated as described in Example 1. The wetting of the benzoyl peroxide in the fluid was determined to be very good, with visual evidence of wetting of the majority, about 90%, of the benzoyl peroxide powder.
as §1, with “20% polyethylene glycol (PEG 200)” for “7.5% ethanol”, “80%” for “92.5%”

[2] = visual inspection of the benzoyl peroxide suspension and wet-milling (Gaulin Mill) to a micro-suspension; settings: for stability of micro-suspension after wet-milling: Gaulin Mill, no surfactants
Protocol: A suspension was prepared containing 33.2% w/w hydrous benzoyl peroxide utilizing a dispersing fluid containing 34.0% w/w propylene glycol and 66% w/w water. Into a 200 gallon stainless steel tank, 175 kg of purified water and 90 kg of propylene glycol were combined. The combination was agitated with a propeller mixer to form a mixture. While mixing, 132 kg of hydrous benzoyl peroxide. (74.5% benzoyl peroxide) powder was added. Mixing continued at 1024 rpm for about 20 minutes to wet and disperse the benzoyl peroxide powder and to obtain a benzoyl peroxide suspension.
The suspension was passed through a Gaulin Mill for micronization using a wet-milling method. […] The propylene glycol content was diluted upon incorporation of benzoyl peroxide suspension into the final topical dosage form to make the 6.26% benzoyl peroxide gel.
A suspension was prepared containing 24.8% w/w hydrous benzoyl peroxide utilizing a dispersing fluid containing 9.4% w/w propylene glycol and 90.6% w/w water. Into a stainless steel tank, 36 kg of purified water and 3.75 kg of propylene glycol were combined. The combination was agitated with a propeller mixer to form a mixture. While mixing, 13.12 kg of hydrous benzoyl peroxide (74.5% benzoyl peroxide) was added. Mixing continued at 1450 rpm for about 10 minutes to wet and disperse the benzoyl peroxide powder and to obtain a benzoyl peroxide suspension.
This suspension was transferred to a Gaulin Mill for micronization using a wet-milling method.
A suspension was prepared containing 24.7% benzoyl peroxide (hydrous) utilizing a dispersing fluid containing 47.6% w/w propylene glycol and 52.4% w/w water. Into a stainless steel tank, 27.5 kg of purified water and 25 kg of propylene glycol were combined. The combination was agitated with a propeller mixer to form a mixture. While mixing, 17.19 kg of hydrous benzoyl peroxide (74.5% benzoyl peroxide) was added. Mixing continued at 858 rpm for about 1 hour to wet and disperse the benzoyl peroxide powder and to obtain a benzoyl peroxide suspension.
This suspension was passed through a Gaulin Mill for micronization using a wet-milling method. […] The propylene glycol content was diluted upon combining the benzoyl peroxide suspension with the clindamycin solution to form the final pharmaceutical product.

[3] = 30 ml fluid of 7.5% ethanol and 92.5% water
[4] = 30 ml fluid of 20% polyethylene glycol (PEG 200) and 80% water

O=C(OOC(=O)c1ccccc1)c1ccccc1 [benzoyl peroxide]
portion of the benzoyl peroxide powder wetted (visual evidence) [1, 3]: about 90%
wetting of the benzoyl peroxide in the fluid (visual) [1, 3]: very good
portion of the benzoyl peroxide powder wetted (visual evidence) [1, 4]: about 90%
wetting of the benzoyl peroxide in the fluid (visual) [1, 4]: very good
stability of micro-suspension after wet-milling ([2]; Example 2: 33.2% w/w hydrous benzoyl peroxide in 34.0% w/w propylene glycol / 66% w/w water): stable
appearance of suspension upon visual inspection ([2]; Example 2: 33.2% w/w hydrous benzoyl peroxide in 34.0% w/w propylene glycol / 66% w/w water, mixed 1024 rpm about 20 minutes): smooth and free of lumps
stability of micro-suspension after wet-milling ([2]; Example 3: 24.8% w/w hydrous benzoyl peroxide in 9.4% w/w propylene glycol / 90.6% w/w water): stable
appearance of suspension upon visual inspection ([2]; Example 3: 24.8% w/w hydrous benzoyl peroxide in 9.4% w/w propylene glycol / 90.6% w/w water, mixed 1450 rpm about 10 minutes): smooth and free of lumps
stability of micro-suspension after wet-milling ([2]; Example 4: 24.7% benzoyl peroxide (hydrous) in 47.6% w/w propylene glycol / 52.4% w/w water): stable
appearance of suspension upon visual observation ([2]; Example 4: 24.7% benzoyl peroxide (hydrous) in 47.6% w/w propylene glycol / 52.4% w/w water, mixed 858 rpm about 1 hour): smooth and free of lumps
